How the values were obtained:
[1] = Demetallation of model mixture (DAO + NiETIO + OEPVO): catalysed oxidation, metal removal, residual nickel by X-ray fluorescence; settings: by mass
Description: (§1) Le procédé de démétallation selon l'invention a été testé sur un mélange modèle de fractions pétrolières lourdes, composé d'un produit pétrolier ne contenant pas de nickel ni de vanadium, auxquelles ont été ajoutées des porphyrines modèles de nickel et de vanadium (exemples 1 à 4, 6 et 7).
(§2) La fraction pétrolière utilisée dans les exemples (DAO) est une huile désasphaltée au solvant, issue d'un résidu sous vide du brut Safaniya d'Arabie Saoudite. Il s'agit donc d'un résidu sous vide dépourvu d'asphaltènes, et donc de pétroporphyrines, pauvre en nickel (<0,2 ppm) et en vanadium (<0,1 ppm).
(§3) Les porphyrines modèles utilisées sont l'étioporphyrine de nickel (NiETIO) et l'octaéthylporphyrine de vanadyle (OEPVO), qui sont disponibles commercialement. Leurs formules sont les suivantes : [drawing 5] […]
(§4) Les différentes fractions sont ensuite évaporées afin de recueillir la fraction pétrolière de 2,02 g (soit un bilan matière de 97 %) qui est ensuite analysée par spectrométrie à fluorescence X pour en déceler 31 ppm de nickel et 54 ppm de Vanadium. […]
(§5) Les différentes fractions sont ensuite évaporées afin de recueillir la fraction pétrolière avec un bilan matière de 97% (en masse) et des teneurs en Nickel et Vanadium analysées par spectrométrie à fluorescence X de moins de 10 ppm (en masse). […]

[2] = Demetallation of model mixture (DAO + NiETIO + OEPVO): catalysed oxidation, metal removal, residual vanadium by X-ray fluorescence; settings: by mass
Description: as §1, §2, §3, §4, §5

Compound: Clc1cccc(Cl)c1-c1c2nc(c(-c3c(Cl)cccc3Cl)c3ccc([n-]3)c(-c3c(Cl)cccc3Cl)c3nc(c(-c4c(Cl)cccc4Cl)c4ccc1[n-]4)C=C3)C=C2.[Mn+2] [Exemple 4, méso-tétra-(2,6-dichloro) phényl porphyrinede manganèse]
- Après traitement Ni Taux d'élimination [1]: 93,8%
- Après traitement V Taux d'élimination [2]: 96,1%

Source: patent EP1939270B1, “Demetallation of oil and hydrocarbon cuts and use of same” (TOTAL RAFFINAGE MARKETING, priority 2006, dated 2008)
